Measurements as given in US20070122843A1, “Isoflavonoid analogs and their metal complexes as anti-cancer agents” (priority 2005, published 2007).
Read-outs that look alike come from different tables or passages of the source.

How the values were obtained:
MCF-7 = assay: MTT cell viability assay, MCF-7; assay type: cell-based
Procedure: (§1) The compounds were tested in multiple panels of breast (MCF-7, T47D, BT20 and MDA-MB231), prostate (PC3), and pancreatic (BxPC3, COLO357) cancer cell lines, using the dye 3-[4,5 dimethylthiazol-2-yl]-2,5 diphenyltetrazolium bromide (MTT assay) according to a method described in Banerjee, et al., Cancer Research. 2002 62, 4945.
(§2) More specifically, the tumor cell lines MCF-7, MDA-MB 231 and COLO 357 were maintained in Dulbecco's modifed Eagle's medium (DMEM) with phenol red. Cell lines T47D, BT20, PC3 and BxPC3 were routinely cultured in RPMI medium, each medium being supplemented with Penicillin (50U/ml), Streptomycin (50 μg/ml) and 10% fetal calf serum (FCS) (Gibco, Myclone). The cell lines were cultured in a humidified incubator in an atmosphere of 5% CO2 and were maintained in continuous exponential growth by twice a week passage.
(§3) Adherent cells at a logarithmic phase were detached by addition of 2-3 ml of trypsin (Gibco), 0.02% EDTA mixture and incubation at 37° C. Cells were plated (100 μL per well) in 48 well flat bottom microtiter plates at densities of 2000 to 5000 per cm^2 (MCF-7, MDA-MB321, T47D, BT20, PC3, B×PC3, COLO357) cells per well. Cells were incubated for 24 h at 37° C. to resume exponential growth. The test compounds were dissolved in DMSO (final concentration 0.1%) and added to the cells 24 h after seeding at varying concentrations. Control wells containing the culture medium, were included in each experiment. Cell proliferation was evaluated after 72 h by means of MTT assay.

BT20 = assay: MTT cell viability / proliferation assay, BT20; assay type: cell-based
Procedure: (§4) More specifically, the tumor cell lines MCF-7, MDA-MB 231 and COLO 357 were maintained in Dulbecco's modifed Eagle's medium (DMEM) with phenol red. […] The cell lines were cultured in a humidified incubator in an atmosphere of 5% CO2 and were maintained in continuous exponential growth by twice a week passage. Adherent cells at a logarithmic phase were detached by addition of 2-3 ml of trypsin (Gibco), 0.02% EDTA mixture and incubation at 37° C. […] Cells were incubated for 24 h at 37° C. to resume exponential growth. The test compounds were dissolved in DMSO (final concentration 0.1%) and added to the cells 24 h after seeding at varying concentrations. Control wells containing the culture medium, were included in each experiment. Cell proliferation was evaluated after 72 h by means of MTT assay. The biological effects of these compounds were studied against the hormone independent breast (BT20) and prostate (PC3) cancers as well as K-ras positive (Colo357) and K-ras negative (B×PC3) pancreatic cancer cell lines.

MDA-MB 231 = assay: MTT cell viability assay, MDA-MB 231; assay type: cell-based
Procedure: as §1, §2, §3

Akt1/PKBα, active enzyme = biological target: T1, Akt1/PKBα, active enzyme (Homo sapiens, UniProt P31749); assay: Fluorescence polarization Akt kinase assay; assay type: biochemical
T1 construct: purchased Upstate Biotechnology 14-276
T1 sequence (P31749 whole entry): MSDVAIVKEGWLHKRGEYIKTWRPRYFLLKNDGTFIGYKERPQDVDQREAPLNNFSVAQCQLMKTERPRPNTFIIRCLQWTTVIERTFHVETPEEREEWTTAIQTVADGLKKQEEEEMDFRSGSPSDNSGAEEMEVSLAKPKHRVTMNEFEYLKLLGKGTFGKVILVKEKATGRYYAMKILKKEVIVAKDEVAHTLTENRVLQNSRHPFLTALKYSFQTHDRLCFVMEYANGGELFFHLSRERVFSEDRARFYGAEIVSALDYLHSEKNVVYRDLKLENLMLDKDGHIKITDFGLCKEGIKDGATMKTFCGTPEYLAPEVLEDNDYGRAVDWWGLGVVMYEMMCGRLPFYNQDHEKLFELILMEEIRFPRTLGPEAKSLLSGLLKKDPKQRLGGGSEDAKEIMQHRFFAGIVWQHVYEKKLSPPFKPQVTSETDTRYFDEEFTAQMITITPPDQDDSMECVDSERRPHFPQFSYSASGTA
Procedure: The serine threonine Akt kinase reaction was carried out in 96 well black plates in a total volume of 100 μl using Ser/Thr kinase polarization based assay kit from Invitrogen Part # P3103. Briefly, the Akt kinase assay reaction was set up in a total volume of 40 μl in the presence of different concentrations of inhibitor. Stock solutions of test compounds were made in DMSO. From DMSO stocks, 4× solutions of test compounds were prepared in 1× assay dilution buffer; 10 μl of this drug solution was used in the assay. […] The plate was incubated at 30° C. for 30 minutes. Enzyme reaction was quenched with 10 μl of 50 mM EDTA for 5 minutes. Anti phosphor serine antibody was added 25 μl/well followed by 10 μl of fluorescent tracer. The total volume was made up to 100 μl by adding 15 μl of fluorescence polarization assay dilution buffer. Appropriate controls and blanks were prepared. The plate was incubated for 1 h at RT and was analyzed for polarization at 435 excitation and 535 emission wavelength on Tecan Ultra microplate reader. Polarization values were normalized to the control and were plotted against log concentration of test compounds using Graph Pad Prism software. Sigmoidal dose response curve analysis was used to calculate the IC50 of test compounds.

BxPC3 = assay: MTT cell viability / proliferation assay, BxPC3; assay type: cell-based
Procedure: as §4

COLO357 = assay: MTT cell viability / proliferation assay, COLO357; assay type: cell-based
Procedure: as §4

PC3 = assay: MTT cell viability / proliferation assay, PC3; assay type: cell-based, human
Procedure: as §4

[1] = system: breast, prostate and pancreatic cancer cell lines; assay: MTT assay, statements over several cancer cell lines; assay type: cell-based
Procedure: as §1, §2, §3
The biological effects of these compounds were studied against the hormone independent breast (BT20) and prostate (PC3) cancers as well as K-ras positive (Colo357) and K-ras negative (B×PC3) pancreatic cancer cell lines.

PC3 cells = assay: Western blot of Akt, p-Akt and PARP in PC3 cells; assay type: cell-based, human; conditions: 10 and 20 μM, 72 h
Procedure: Control cells were incubated in the medium with Na2CO3 using same time point. After incubation the cells were lysed with This-HCl (62.5 mm) and 2% SDS. Protein concentration was then measured using […] protein assay (Pierce Chemical Co., Rockford, Ill.). Cell extracts were subjected to 10% SDS-PAGE and electrophoretically transferred to nitrocellulose membrane. Membranes were then incubated with monoclonal anti-Akt (epitome: amino acids 345-480 of Akt1, 1:500; Ontogeny, 26. San Diego, Calif.), anti-phosphor-Akt Ser473 (1:1000; Cell Signaling, Beverly, Mass.), primary monoclonal anti-PARP antibody (1:5000; Biomol, Plymouth Meeting, Pa.) and anti-β-actin (1:5000; Sigma) antibodies, washed with TTBS, and incubated with secondary antibody conjugated with peroxidase. The signal was then detected using the chemiluminescent detection system (Pierce, Rockford, Ill.).

[2] = system: breast cancer cell line (T47D); assay: Propidium iodide / Hoechst 33342 staining, apoptosis and cell viability; assay type: cell-based
Procedure: To provide further evidence of apoptosis, we carried out phase contrast microscopy using a mixture of propidium iodide (PI) and Hoechst dye 33342 to determine the integrity of cell membranes of cancer cells. The quantification of the apoptosis was carried out by cell count after staining with PI followed by visualization of treated cells by fluorescence analysis. […] After 5 minutes at 37° C. the cells were placed under a fluorescence microscope (Nikon Optiphot) with a filter block giving excitation at 380 nm and 480 nm.

COLO 357 cells = assay: Orthotopic pancreatic tumor model using COLO 357 cells; assay type: in vivo
Procedure: The redox sensitive transcription factor NF-kB, is downstream of the Akt kinase protein and plays major role in the cell proliferation and metastasis and resistance in major cancers such as breast, prostate and pancreatic. […] Nuclear proteins were extracted from the tumor tissue as described previously (see, for example, Banerjee, et al, Cancer Research, Vo. 65, p. 9064 (2005)) and kept at −70° C. until use. Protein concentration was determined using the bicinchonic acid assay kit with BSA as the standard (Pierce Chemical Co., Rockford, Ill.). The incubation mixture included 25 mM DTT and 2.5% Tween 20 in a binding buffer. The DNA-protein complex formed was separated from free oligonucleotide on 8.0% native polyacralyamide gel using buffer containing 50 mM Tris, 200 mm glycine, pH 8.5, and 1 mM EDTA, and then visualized by Odyssey Infrared Imaging System using Odyssey Software Release 1.1.
Since the NF-κB pathway is regulated by Akt protein, the effects of the FPA-124 on NF-κB activity was studied in an in vivo experiment, specifically the well-established orthotopic pancreatic tumor model using COLO 357 cells.

T47D = assay: MTT cell viability assay, T47D; assay type: cell-based; conditions: 72 h
Procedure: as §1, §2
as §3, with “The test compounds were dissolved in DMSO (final concentration 0.1%) and added to the cells 24 h after seeding at varying concentrations. Control wells containing the culture medium, were included in each experiment.” left out

[3] = system: vascular endothelial growth factor (VEGF); assay: VEGF ELISA in BxPC3 cells; assay type: cell-based, human; conditions: 10 μM, 20 μM, 72 h
Procedure: B×PC3 cells (0.1×10^6/well) were plated into 6-well plates and incubated in supplemented RPMI containing 10% FBS.

[4] = system: Colo357, BxPC3, BT20, and PC3 cells; assay: Cell Death Detection ELISA apoptosis assay; assay type: cell-based; conditions: FPA-124, FPA-125, FPA-127 compared
Procedure: To determine whether the metal conjugates induce apoptosis in tumor cells, quantitative evaluation of apoptosis was carried out with a Cell Death Detection ELISA kit (Roche, Palo Alto, Calif.). Apoptosis was detected according to the protocol supplied by the manufacturer.
Since all copper compounds are redox active metal conjugates, we believe that redox triggered oxidative stress may be one of the underlying mechanisms for the observed apoptotic cell death in the present case. […] This observation is also in accordance with the favorable distortion factor calculated for the present copper compounds using EPR spectra, which factor helps stabilize cuprous and cupric species without dissociation of the conjugate.

[5] = 72 h, Table 1, read-out: MTT cell viability assay IC50 BT20
[6] = FPA-102 25 mg/kg wt, i.v. on alternate days
[7] = 72 h, Table 1, read-out: MTT cell viability assay IC50 BxPC3
[8] = 72 h, Table 1, read-out: MTT cell viability assay IC50 COLO357
[9] = 72 h, Table 1, read-out: MTT cell viability assay IC50 PC3

## CC(=O)C1CCC2C3CCC4=CC(=NNC(N)=S)CCC4(C)C3CCC12C (stereo not drawn) [FPA-101, 17-acetyl-10,13-dimethyl-1,2,6,7,8,9,11,12,13,14,15,16,17-tetradecahydrocyclopenta[a]phenantnren-3-thiosemicarbazone]
MCF-7; Homo sapiens, MCF7, 72 h
  IC50: 20 µM
BT20; Homo sapiens, BT-20, 72 h, Table 1, read-out: MTT cell viability assay IC50 BT20
  IC50: 53 µM
MDA-MB 231; Homo sapiens, MDA-MB-231, 72 h
  IC50: 25 µM
Akt1/PKBα, active enzyme
  concentration inhibiting Akt kinase activity: higher concentration
BxPC3; Homo sapiens, BXPC-3, 72 h, Table 1, read-out: MTT cell viability assay IC50 BxPC3
  IC50: 5 µM
COLO357; Homo sapiens, COLO357, 72 h, Table 1, read-out: MTT cell viability assay IC50 COLO357
  IC50: 13 µM
PC3; Homo sapiens, PC-3, 72 h, Table 1, read-out: MTT cell viability assay IC50 PC3
  IC50: 16 µM
[1]; cell lines of Table 1
  antiproliferative action against the cell lines tested: moderate antiproliferative action

## CC(=O)C1CCC2C3CCC4=CC(=NNC(N)=S)CCC4(C)C3CCC12C.[Cl][Cu][Cl] (stereo not drawn) [FPA-102]
MCF-7; 72 h
  IC50: 6 µM
PC3 cells
  PARP degradation, Western blot: induces poly (ADP-ribose) polymerase degradation
  phosphor-Akt, Western blot: down regulates
[2]; IC50 concentration, 24-48 h treatment
  apoptotic cells: ~95%
[2]; IC50 concentration, 3 h incubation
  non-viable cells: 40%
[2]; T47D, 10 μM, 72 hours
  cell death by uptake of propidium iodide: cells undergoing cell death by uptake of propidium iodide
BT20; [5]
  IC50: 13 µM
COLO 357 cells; [6]
  body weight of treated mice vs control (toxicity): no significant change in the body weight
  tumor burden: decrease tumor burden
COLO 357 cells; treatment for 10 days, once every alternate day
  NF-κB in tumor tissue (EMSA): down-regulation of NF-κB
COLO 357 cells; tumor from treated mice
  tumor histology: marked necrosis and apoptosis
  viable part of tumor mass, histology: 20%
T47D
  IC50: 5 µM
MDA-MB 231; 72 h
  IC50: 11 µM
BxPC3; [7]
  IC50: 12.7 µM
[3]
  VEGF levels: decrease in the VEGF levels
COLO357; [8]
  IC50: 9 µM
PC3; [9]
  IC50: 9 µM
[1]; MCF-7, MDA-MB 231, T47D, BT20, PC3, BxPC3, COLO357, read-out: IC50 values, range over the cell lines of Table 1
  IC50: 5 to 13 µM

## CC(=O)C1CCC2C3CCC4=CC(=NNC(N)=S)CCC4(C)C3CCC12C.[Cl][Ni][Cl] (stereo not drawn) [FPA-103]
MCF-7; 72 h
  IC50: 7.5 µM
BT20; [5]
  IC50: > 100 µM
Akt1/PKBα, active enzyme
  concentration inhibiting Akt kinase activity: higher concentration
COLO357; [8]
  IC50: 20 µM
PC3; [9]
  IC50: > 100 µM

## CC(=O)C1CCC2C3CCC4=CC(=NNC(N)=S)CCC4(C)C3CCC12C.[Cl][Pt][Cl] (stereo not drawn) [FPA-104]
MCF-7; 72 h
  IC50: 22 µM
BT20; [5]
  IC50: 18 µM
MDA-MB 231; 72 h
  IC50: 34 µM
Akt1/PKBα, active enzyme
  concentration inhibiting Akt kinase activity: higher concentration
BxPC3; [7]
  IC50: 5 µM
COLO357; [8]
  IC50: 7.3 µM
PC3; [9]
  IC50: 18 µM

## NC1=[S+][Cu-2]([Cl])([Cl])[N+](=Cc2coc3ccccc3c2=O)N1 [FPA-124]
BT20; read-out: concentration for 50% cell kill, BT20 cells
  IC50: 7 µM
COLO 357 cells; FPA-124 study
  NF-κB activity in tumor tissue (EMSA): significantly decreased
  body weight of the treated animals (toxicity): no change in the body weight
  tumor load (pancreas weight): decrease in the tumor load
Akt1/PKBα, active enzyme; read-out: Akt kinase activity IC50
  IC50: 0.1 µM
BxPC3; Table 2, read-out: MTT Cell Proliferation Assay IC50 BxPC3
  IC50: 55 µM
COLO357; Table 2, read-out: MTT Cell Proliferation Assay IC50 COLO357
  IC50: 34 µM
PC3; read-out: concentration for 50% cell kill, PC3 cells
  IC50: 10 µM
[4]
  apoptosis by ELISA, rank among metal conjugates: most active compound

## O=c1c(-c2ccc(O)cc2)coc2cc(O)cc(O)c12 [Genistein, 4,5,7,-trihydroxyisoflavone, reference compound]
BT20; Homo sapiens, BT-20, Table 2, read-out: MTT Cell Proliferation Assay IC50 BT20
  IC50: 46 to 70 µM
Akt1/PKBα, active enzyme; Table 2, read-out: Fluorescence Polarization Akt kinase Assay IC50
  IC50: > 70 µM
BxPC3; Homo sapiens, BXPC-3, Table 2, read-out: MTT Cell Proliferation Assay IC50 BxPC3
  IC50: 30 µM
COLO357; Homo sapiens, COLO357, Table 2, read-out: MTT Cell Proliferation Assay IC50 COLO357
  IC50: 50 µM
PC3; Homo sapiens, PC-3, Table 2, read-out: MTT Cell Proliferation Assay IC50 PC3
  IC50: 50 µM
[1]; Pancreatic cancer cell, Colo357, BxPC3, BT20, PC3, read-out: IC50 values in these multiple cancer cell lines
  IC50: > 40 µM
